We go through 19 compounds from patent US7514446B2, “Pyrimidine compounds” (SmithKline Beecham Corporation, priority 2003, dated 2009).

The target of assay [1] is T1, PLK1 kinase domain (Homo sapiens, UniProt P53350).
T1 construct: made in house; host or cells: baculovirus-infected T. ni insect cells
Briefly: Assay for inhibition of PLK1 (SPA, 33P-ATP, His-tagged PLK kinase domain). Type of assay: biochemical. The following applies: 2 μM ATP, read-out: Ave pIC50 PLK Enzyme Inhibition (converted). The protocol:
I. Assay for Inhibition of PLK1
A. Preparation of 6× N-terminal His-tagged PLK Kinase Domain
6× N-terminal His-tagged PLK kinase domain (amino acids 21-346 preceded by […]) was prepared from baculovirus infected T. ni cells under polyhedrin promoter control. All procedures were performed at 4° C. Cells were lysed in 25 mM HEPES, 200 mM NaCl, 25 mM imidazole; pH 8.0. The homogenate was centrifuged at 14K rpm in a SLA-1500 rotor for 40 min and the supernatant filtered through a 1.2 micron filter. The supernatant was loaded onto a Nickel chelating Sepharose (Amersham Pharmacia) column and washed with 25 mM HEPES, 500 mM NaCl, 25 mM imidazole; pH 8.0. The column was then washed with a 16.6% B step where buffer B is 25 mM HEPES, 500 mM NaCl, 300 mM imidazole; pH 8.0. Protein was eluted using a 10-column volume linear gradient from 16.6% B to 100% B. Fractions containing PLK were determined by SDS-PAGE. PLK was concentrated using a 10 kDa molecular weight cutoff membrane and then loaded onto a Superdex 75 gel filtration (Amersham Pharmacia) column equilibrated in 25 mM HEPES, 1 mM DTT, 500 mM NaCl; pH 8.0. Fractions containing PLK were determined by SDS-PAGE. PLK was pooled, aliquoted and stored at −80° C. Samples were quality controlled using mass spectrometry.
B. Enzyme Activity+/−Inhibitors was Determined as Follows:
Compounds were added to the plate (1 μl in 100% DMSO). DMSO (2% final) and EDTA (55.5 mM final) were used as controls. Reaction Mix A is prepared as follows at 4° C.:
Reaction Mix A (substrate Mix): • 25 mM HEPES, pH 7.2 • 15 mM MgCl2 • 2 μM ATP • 0.1 μCi/well ^33P-γ ATP (10 Ci/mMol) • 2 μM substrate peptide (Biotin-Ahx-[…]) Reaction Mix B is prepared as follows at 4° C.:
Reaction Mix B (Enzyme Mix) • 25 mM HEPES, pH 7.2 • 15 mM MgCl2 • 0.15 mg/ml BSA • 2 mM DTT • 2-10 nM PLK1 kinase domain
Reaction Mix A (20 μl) is added per well. Reaction Mix B (20 μl) is added per well. Incubate 1.5 hrs. at RT. The enzymatic reaction is stopped with 175 μl of SPA/EDTA bead mix (29 mM EDTA, 2.5 mg/ml Streptavidin-coated SPA in Standard Dulbecco's PBS (without Mg^2+ and Ca^2+), 60 μM ATP). Plates are sealed spun (after a 1 hr incubation at RT) at 1,000×g for 7 min or settled overnight, then plates counted in Packard TopCount for 30 seconds/well.

The subject of assay [2] is H460 lung tumor cell line. Nature of the assay: Methylene Blue Growth Inhibition Assay, H460. The assay is classed as cell-based. Particulars: Homo sapiens, NCI-H460, 72 h; H460 cells, 3 days; read-out: MeB Cell Line IC50. The method, then:
(§1) II. Methylene Blue Growth Inhibition Assay
(§2) Normal Human foreskin fibroblasts (HFF) and human colon (HCT116, RKO), lung (H460), prostate (PC3), and breast tumor (MCF7) cell lines were cultured in high glucose DMEM (Life Technologies) containing 10% fetal bovine serum (FBS) at 37° C. in a humidified 10% CO2, 90% air incubator. Cells were harvested using trypsin/EDTA, counted using a haemocytometer, and plated in 100 μl of the appropriate media, at the following densities, in a 96-well tissue culture plate (Falcon 3075): HFF 5,000 cells/well, HCT116 3,000 cells/well, RKO 2,500 cells/well, H460 2,000 cells/well, PC3 8,000 cells/well, MCF7 4,000 cells/well. The next day, compounds were diluted in DMEM containing 100 μg/ml gentamicin, at twice the final required concentration, from 10 mM stock solutions in DMSO. 100 μl/well of these dilutions were added to the 100 μl of media currently on the cell plates. Medium containing 0.6% DMSO was added to control wells. Compounds diluted in DMEM were added to all cell lines. The final concentration of DMSO in all wells was 0.3%. Cells were incubated at 37° C., 10% CO2 for 3 days. Medium was removed by aspiration. Cell biomass was estimated by staining cells with 90 μl per well methylene blue (Sigma M9140, 0.5% In 50:50 ethanol:water), and incubation at room temperature for at least 30 minutes. Stain was removed, and the plates rinsed under a gentle stream of water, and air-dried. To release stain from the cells 100 μl of solubilization solution was added (1% N-lauroyl sarcosine, Sodium salt, Sigma L5125, in PBS), and plates were shaken gently for about 30 minutes. Optical density at 620 nm was measured on a microplate reader. Percent inhibition of cell growth was calculated relative to vehicle treated control wells. Concentration of compound that inhibits 50% of cell growth (IC50) was interpolated using nonlinear regression (Levenberg-Marquardt) and the equation, y=Vmax*(1−(x/(K+x)))+Y2, where “K” was equal to the IC50. In Table 1, +=10->30 uM; ++=1-10 uM: +++=<1 uM.

Assay [3] deals with HCT116 colon tumor cell line. Briefly: Methylene Blue Growth Inhibition Assay, HCT116. Type of assay: cell-based. Particulars: Homo sapiens, HCT-116, 72 h; HCT116 cells, 3 days; read-out: MeB Cell Line IC50. The method, then: as §1, §2
Assay [4] has as its system Normal Human foreskin fibroblasts (HFF). Briefly: Methylene Blue Growth Inhibition Assay, HFF. The assay is classed as cell-based. Particulars: 72 h, HFF cells, 3 days, read-out: MeB Cell Line IC50. The method, then: as §1, §2
For assay [5], the system named is MCF7 breast tumor cell line. Briefly: Methylene Blue Growth Inhibition Assay, MCF7. Type of assay: cell-based. Particulars: Homo sapiens, 72 h; MCF7 cells, 3 days; read-out: MeB Cell Line IC50. The protocol:
as §1, §2

The subject of assay [6] is PC3 prostate tumor cell line. Briefly: Methylene Blue Growth Inhibition Assay, PC3. Type of assay: cell-based. Particulars: Homo sapiens, PC-3, 72 h; PC3 cells, 3 days; read-out: MeB Cell Line IC50. The method, then:
as §1, §2

In assay [7] the test system is RKO colon tumor cell line. Briefly: Methylene Blue Growth Inhibition Assay, RKO. Type of assay: cell-based. The following applies: Homo sapiens, 72 h; RKO cells, 3 days; read-out: MeB Cell Line IC50. The method, then: as §1, §2

Structures can show the parent of a compound that is named as a salt. Bounds are passed on as bounds.

T1 sequence (P53350 21-346): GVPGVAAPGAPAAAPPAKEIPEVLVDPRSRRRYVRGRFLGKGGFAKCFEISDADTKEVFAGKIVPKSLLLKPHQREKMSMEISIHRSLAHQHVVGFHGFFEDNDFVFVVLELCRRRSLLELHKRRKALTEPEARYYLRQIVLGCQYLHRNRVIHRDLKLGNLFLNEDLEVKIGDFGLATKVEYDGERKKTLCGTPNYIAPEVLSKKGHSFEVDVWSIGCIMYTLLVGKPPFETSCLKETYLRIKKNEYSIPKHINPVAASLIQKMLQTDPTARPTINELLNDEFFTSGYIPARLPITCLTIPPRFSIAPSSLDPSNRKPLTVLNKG

In the case of `COc1cc(Nc2ncc([N+](=O)[O-])c(Nc3ccccc3C(=O)O)n2)cc(OC)c1OC` [Example 1, 2-({5-nitro-2-[(3,4,5-trimethoxyphenyl)amino]pyrimidin-4-yl}amino)benzoic acid hydrochloride], the IC50 in assay [1] was below 100 nM.
Consider `COc1cc(Nc2ncc([N+](=O)[O-])c(Nc3ccccc3C(N)=O)n2)cc(OC)c1OC` [Example 3, 2-({5-nitro-2-[(3,4,5-trimethoxyphenyl)amino]pyrimidin-4-yl}amino)benzamide hydrochloride], for which the IC50 was below 1000 nM in assay [2]; below 1000 nM in assay [3]; 1000 to 10000 nM in assay [4]; below 1000 nM in assay [5]; 1000 to 10000 nM in assay [6]; below 1000 nM in assay [7].
`COc1cc(Nc2ncc(Br)c(Nc3ccccc3C(C)=O)n2)cc(OC)c1OC` [Example 11, 1-[2-({5-bromo-2-[(3,4,5-trimethoxyphenyl)amino]pyrimidin-4-yl}amino)phenylethanone hydrochloride]: the IC50 in assay [1] is below 100 nM.
For the compound `CNC(=O)c1ccccc1Nc1nc(Nc2ccc(NC(C)=O)cc2)ncc1[N+](=O)[O-]` [Example 13, 2-[(2-{[4-(acetylamino)phenyl]amino}-5-nitropyrimidin-4-yl)amino]-N-methylbenzamide hydrochloride], in assay [1], the IC50 is below 100 nM.
On to `COC(=O)c1ccccc1Nc1nc(Nc2cc(OC)c(OC)c(OC)c2)ncc1[N+](=O)[O-]` [Example 17, Methyl 2-({5-nitro-2-[(3,4,5-trimethoxyphenyl)amino]pyrimidin-4-yl}amino)benzoate hydrochloride], for which, in assay [1], the IC50 was below 100 nM.
In the case of `CC(=O)Nc1ccc(Nc2ncc([N+](=O)[O-])c(Nc3ccccc3C(=O)OC3CCCCC3)n2)cc1` [Example 21, Cyclohexyl 2-[(2-{[4-(acetylamino)phenyl]amino}-5-nitropyrimidin-4-yl)amino]benzoate hydrochloride], the IC50 in assay [1] was below 100 nM.
On the same count and under the same terms, with `CC(=O)Nc1ccc(Nc2ncc([N+](=O)[O-])c(Nc3ccccc3C(=O)O)n2)cc1` [Example 23, 2-[(2-{[4-(Acetylamino)phenyl]amino}-5-nitropyrimidin-4-yl)amino]benzoic acid hydrochloride] the figure was below 100 nM.
As to `CC(=O)Nc1ccc(Nc2ncc(Br)c(Nc3ccccc3C(C)=O)n2)cc1` [Example 24, N-[4-({4-[(2-Acetylphenyl)amino]-5-bromopyrimidin-2-yl}amino)phenyl]acetamide hydrochloride], the IC50 in assay [1] was below 100 nM.
As for `CC(=O)Nc1ccc(Nc2ncc(Br)c(Nc3ccccc3N3CCOCC3)n2)cc1` [Example 25, N-[4-({5-Bromo-4-[(2-morpholin-4-ylphenyl)amino]pyrimidin-2-yl}amino)phenyl]acetamide hydrochloride], in assay [1], the IC50 is below 100 nM.
Consider `COc1cc(Nc2ncc(Br)c(Nc3ccccc3N3CCOCC3)n2)cc(OC)c1OC` [Example 27, 5-Bromo-N^4-(2-morpholin-4-ylphenyl)-N^2-(3,4,5-trimethoxyphenyl)-pyrimidine-2,4-diamine hydrochloride], for which the IC50 in assay [1] is 100 to 10000 nM.
`COc1cc(Nc2nc(Nc3ccc(NC(C)=O)cc3)ncc2Br)cc(OC)c1OC` [Example 28, N-[4-(5-Bromo-4-[(3,4,5-trimethoxyphenyl)amino]pyrimidin-2-yl}amino)phenyl]acetamide hydrochloride]: in assay [1], the IC50 was above 10000 nM.
Consider `COC(=O)c1ccc(C(=O)OC)c(Nc2nc(Nc3ccc(NC(C)=O)cc3)ncc2[N+](=O)[O-])c1` [Example 29, Dimethyl 2-[(2-{[4-(acetylamino)phenyl]amino}-5-nitropyrimidin-4-yl)amino]terephthalate hydrochloride], for which the IC50 in assay [1] was 100 to 10000 nM.
Still for that read-out and setting: with `CC(=O)Nc1ccc(Nc2ncc([N+](=O)[O-])c(Nc3ccccc3C(=O)OCc3ccccc3)n2)cc1` [Example 30, Benzyl 2-[(2-{[4-(acetylamino)phenyl]amino}-5-nitropyrimidin-4-yl)amino]benzoate hydrochloride] the figure was 100 to 10000 nM; with `COC(=O)c1c(C)cccc1Nc1nc(Nc2ccc(NC(C)=O)cc2)ncc1[N+](=O)[O-]` [Example 31, Methyl 2-[(2-{[4-(acetylamino)phenyl]amino}-5-nitropyrimidin-4-yl)amino]-6-methylbenzoate hydrochloride], below 100 nM; with `CC(=O)Nc1ccc(Nc2ncc([N+](=O)[O-])c(Nc3ccccc3C(=O)OCC(C)C)n2)cc1` [Example 32, Isobutyl 2-[(2-{[4-(acetylamino)phenyl]amino}-5-nitropyrimidin-4-yl)amino]benzoate hydrochloride], below 100 nM.
On to `CC(=O)Nc1ccc(Nc2ncc([N+](=O)[O-])c(Nc3cccc(C)c3C(=O)O)n2)cc1` [Example 33, 2-[(2-{[4-(Acetylamino)phenyl]amino}-5-nitropyrimidin-4-yl)amino]-6-methylbenzoic acid hydrochloride], for which, in assay [1], the IC50 is below 100 nM.
For the compound `COc1cc(Nc2ncc([N+](=O)[O-])c(Nc3ccccc3C(C)=O)n2)cc(OC)c1OC` [Example 35, 1-[2-({5-Nitro-2-[(3,4,5-trimethoxyphenyl)amino]pyrimidin-4-yl}amino)phenyl]ethanone hydrochloride], the IC50 in assay [1] was below 100 nM.
Regarding `COc1cc(Nc2ncc([N+](=O)[O-])c(Nc3cccc4ccc(O)cc34)n2)cc(OC)c1OC` [Example 37, 8-({5-Nitro-2-[(3,4,5-trimethoxyphenyl)amino]pyrimidin-4-yl}amino)-2-naphthol hydrochloride], the IC50 in assay [1] was below 100 nM.
As to `COc1cc(Nc2ncc(C(C)=O)c(Nc3ccccc3C(=O)NC(C)(C)C)n2)cc(OC)c1OC` [Example 38, N-(tert-butyl)-2-({5-methyl ketone-2-[(3,4,5-trimethoxyphenyl)amino]pyrimidin-4-yl}amino) benzamide], in assay [1], the IC50 was below 100 nM.
